Assay results: patent US20100305068A1, “COMPOUNDS AND METHODS FOR MODULATING PROTEIN TRAFFICKING” (priority 2006, published 2010)

tested on: pdr5 ypt1^ts cells; experiment: microbe, parasite or virus in culture; format: cell-based, yeast; details: Saccharomyces cerevisiae; Table 2; lowest concentration tested giving growth above the 0 μM background; 37° C.; read-out: ypt1-ts MRC (minimal rescue concentration)
How it was run: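 Whole-cell yeast growth-rescue screen: pdr5 ypt1^ts cells (efflux pump inactivated), growth-arrested at 37° C., cultured with compounds at 37° C. Restoration of growth read by optical density.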

Row | SMILES | minimal effective concentration
1 | CCOC(=O)c1c(C)cc(O)c(C=O)c1O [H[…], ETHYL ESTER] | 3.13 µM
2 | CC(C)OC(=O)Nc1cccc(Cl)c1 [CHLORPROPHAM] | 25 µM
3 | C=C1CCC2C(CC2(C)C)C(=C)CC/C1=N/O (centres unmarked) [5- HYDROXYIMINOISOC ARYOPHYLLENE] | 12.5 µM
4 | Oc1ccc2c(c1)OCC1c3cc4c(cc3OC21)OCO4 (centres unmarked) [MAACKIAIN] | 25 µM
5 | c1ccc2c(Cc3c[nH]c4ccccc34)c[nH]c2c1 [3,3'- DIINDOLYLMETHANE] | 3.13 µM
6 | CC(=O)[C@H]1CC[C@H]2[C@@H]3CCC4=CC(=O)CC[C@]4(C)[C@H]3CC[C@]12C [PROGESTERONE, reference compound] | 12.5 µM
7 | C=C1C2CC[C@@]3(C)[C@H](c4ccoc4)OC(=O)C[C@]13O[C@H]1C[C@H](OC(C)=O)C(C)(C)[C@H](CC(=O)OC)[C@@]21C [3beta- ACETO[…] ACID, METHYL ESTER] | 1.56 µM

same assay, conditions: Table 2; 0.39 μM compound; 37° C.; background (0 μM) 0.058

Row | SMILES | optical density, ypt1-ts, 0.39
8 | CCOC(=O)c1c(C)cc(O)c(C=O)c1O [H[…], ETHYL ESTER] | 0.104
9 | CC(C)OC(=O)Nc1cccc(Cl)c1 [CHLORPROPHAM] | 0.086
10 | C=C1CCC2C(CC2(C)C)C(=C)CC/C1=N/O (centres unmarked) [5- HYDROXYIMINOISOC ARYOPHYLLENE] | 0.096
11 | Oc1ccc2c(c1)OCC1c3cc4c(cc3OC21)OCO4 (centres unmarked) [MAACKIAIN] | 0.084
12 | c1ccc2c(Cc3c[nH]c4ccccc34)c[nH]c2c1 [3,3'- DIINDOLYLMETHANE] | 0.205
13 | CC(=O)[C@H]1CC[C@H]2[C@@H]3CCC4=CC(=O)CC[C@]4(C)[C@H]3CC[C@]12C [PROGESTERONE, reference compound] | 0.089
14 | C=C1C2CC[C@@]3(C)[C@H](c4ccoc4)OC(=O)C[C@]13O[C@H]1C[C@H](OC(C)=O)C(C)(C)[C@H](CC(=O)OC)[C@@]21C [3beta- ACETO[…] ACID, METHYL ESTER] | 0.129

same assay, conditions: Table 2; 0.78 μM compound; 37° C.; background (0 μM) 0.058

Row | SMILES | optical density, ypt1-ts, 0.78
15 | CCOC(=O)c1c(C)cc(O)c(C=O)c1O [H[…], ETHYL ESTER] | 0.078
16 | CC(C)OC(=O)Nc1cccc(Cl)c1 [CHLORPROPHAM] | 0.072
17 | C=C1CCC2C(CC2(C)C)C(=C)CC/C1=N/O (centres unmarked) [5- HYDROXYIMINOISOC ARYOPHYLLENE] | 0.077
18 | Oc1ccc2c(c1)OCC1c3cc4c(cc3OC21)OCO4 (centres unmarked) [MAACKIAIN] | 0.073
19 | c1ccc2c(Cc3c[nH]c4ccccc34)c[nH]c2c1 [3,3'- DIINDOLYLMETHANE] | 0.097
20 | CC(=O)[C@H]1CC[C@H]2[C@@H]3CCC4=CC(=O)CC[C@]4(C)[C@H]3CC[C@]12C [PROGESTERONE, reference compound] | 0.083
21 | C=C1C2CC[C@@]3(C)[C@H](c4ccoc4)OC(=O)C[C@]13O[C@H]1C[C@H](OC(C)=O)C(C)(C)[C@H](CC(=O)OC)[C@@]21C [3beta- ACETO[…] ACID, METHYL ESTER] | 0.096

same assay, conditions: Table 2; 1.56 μM compound; 37° C.; background (0 μM) 0.058

Row | SMILES | optical density, ypt1-ts, 1.56
22 | CCOC(=O)c1c(C)cc(O)c(C=O)c1O [H[…], ETHYL ESTER] | 0.105
23 | CC(C)OC(=O)Nc1cccc(Cl)c1 [CHLORPROPHAM] | 0.081
24 | C=C1CCC2C(CC2(C)C)C(=C)CC/C1=N/O (centres unmarked) [5- HYDROXYIMINOISOC ARYOPHYLLENE] | 0.087
25 | Oc1ccc2c(c1)OCC1c3cc4c(cc3OC21)OCO4 (centres unmarked) [MAACKIAIN] | 0.076
26 | c1ccc2c(Cc3c[nH]c4ccccc34)c[nH]c2c1 [3,3'- DIINDOLYLMETHANE] | 0.118
27 | CC(=O)[C@H]1CC[C@H]2[C@@H]3CCC4=CC(=O)CC[C@]4(C)[C@H]3CC[C@]12C [PROGESTERONE, reference compound] | 0.091
28 | C=C1C2CC[C@@]3(C)[C@H](c4ccoc4)OC(=O)C[C@]13O[C@H]1C[C@H](OC(C)=O)C(C)(C)[C@H](CC(=O)OC)[C@@]21C [3beta- ACETO[…] ACID, METHYL ESTER] | 0.133

same assay, conditions: Table 2; 3.13 μM compound; 37° C.; background (0 μM) 0.058

Row | SMILES | optical density, ypt1-ts, 3.13
29 | CCOC(=O)c1c(C)cc(O)c(C=O)c1O [H[…], ETHYL ESTER] | 0.135
30 | CC(C)OC(=O)Nc1cccc(Cl)c1 [CHLORPROPHAM] | 0.09
31 | C=C1CCC2C(CC2(C)C)C(=C)CC/C1=N/O (centres unmarked) [5- HYDROXYIMINOISOC ARYOPHYLLENE] | 0.108
32 | Oc1ccc2c(c1)OCC1c3cc4c(cc3OC21)OCO4 (centres unmarked) [MAACKIAIN] | 0.103
33 | c1ccc2c(Cc3c[nH]c4ccccc34)c[nH]c2c1 [3,3'- DIINDOLYLMETHANE] | 0.164
34 | CC(=O)[C@H]1CC[C@H]2[C@@H]3CCC4=CC(=O)CC[C@]4(C)[C@H]3CC[C@]12C [PROGESTERONE, reference compound] | 0.098
35 | C=C1C2CC[C@@]3(C)[C@H](c4ccoc4)OC(=O)C[C@]13O[C@H]1C[C@H](OC(C)=O)C(C)(C)[C@H](CC(=O)OC)[C@@]21C [3beta- ACETO[…] ACID, METHYL ESTER] | 0.374

same assay, conditions: Table 2; 6.25 μM compound; 37° C.; background (0 μM) 0.058

Row | SMILES | optical density, ypt1-ts, 6.25
36 | CCOC(=O)c1c(C)cc(O)c(C=O)c1O [H[…], ETHYL ESTER] | 0.204
37 | CC(C)OC(=O)Nc1cccc(Cl)c1 [CHLORPROPHAM] | 0.096
38 | C=C1CCC2C(CC2(C)C)C(=C)CC/C1=N/O (centres unmarked) [5- HYDROXYIMINOISOC ARYOPHYLLENE] | 0.117
39 | Oc1ccc2c(c1)OCC1c3cc4c(cc3OC21)OCO4 (centres unmarked) [MAACKIAIN] | 0.09
40 | c1ccc2c(Cc3c[nH]c4ccccc34)c[nH]c2c1 [3,3'- DIINDOLYLMETHANE] | 0.154
41 | CC(=O)[C@H]1CC[C@H]2[C@@H]3CCC4=CC(=O)CC[C@]4(C)[C@H]3CC[C@]12C [PROGESTERONE, reference compound] | 0.12
42 | C=C1C2CC[C@@]3(C)[C@H](c4ccoc4)OC(=O)C[C@]13O[C@H]1C[C@H](OC(C)=O)C(C)(C)[C@H](CC(=O)OC)[C@@]21C [3beta- ACETO[…] ACID, METHYL ESTER] | 0.538

same assay, conditions: Table 2; 12.5 μM compound; 37° C.; background (0 μM) 0.058

Row | SMILES | optical density, ypt1-ts, 12.5
43 | CCOC(=O)c1c(C)cc(O)c(C=O)c1O [H[…], ETHYL ESTER] | 0.621
44 | CC(C)OC(=O)Nc1cccc(Cl)c1 [CHLORPROPHAM] | 0.101
45 | C=C1CCC2C(CC2(C)C)C(=C)CC/C1=N/O (centres unmarked) [5- HYDROXYIMINOISOC ARYOPHYLLENE] | 0.131
46 | Oc1ccc2c(c1)OCC1c3cc4c(cc3OC21)OCO4 (centres unmarked) [MAACKIAIN] | 0.104
47 | c1ccc2c(Cc3c[nH]c4ccccc34)c[nH]c2c1 [3,3'- DIINDOLYLMETHANE] | 0.263
48 | CC(=O)[C@H]1CC[C@H]2[C@@H]3CCC4=CC(=O)CC[C@]4(C)[C@H]3CC[C@]12C [PROGESTERONE, reference compound] | 0.15
49 | C=C1C2CC[C@@]3(C)[C@H](c4ccoc4)OC(=O)C[C@]13O[C@H]1C[C@H](OC(C)=O)C(C)(C)[C@H](CC(=O)OC)[C@@]21C [3beta- ACETO[…] ACID, METHYL ESTER] | 0.571

same assay, conditions: Table 2; 25 μM compound; 37° C.; background (0 μM) 0.058

Row | SMILES | optical density, ypt1-ts, 25
50 | CCOC(=O)c1c(C)cc(O)c(C=O)c1O [H[…], ETHYL ESTER] | 0.645
51 | CC(C)OC(=O)Nc1cccc(Cl)c1 [CHLORPROPHAM] | 0.145
52 | C=C1CCC2C(CC2(C)C)C(=C)CC/C1=N/O (centres unmarked) [5- HYDROXYIMINOISOC ARYOPHYLLENE] | 0.153
53 | Oc1ccc2c(c1)OCC1c3cc4c(cc3OC21)OCO4 (centres unmarked) [MAACKIAIN] | 0.209
54 | c1ccc2c(Cc3c[nH]c4ccccc34)c[nH]c2c1 [3,3'- DIINDOLYLMETHANE] | 0.035
55 | CC(=O)[C@H]1CC[C@H]2[C@@H]3CCC4=CC(=O)CC[C@]4(C)[C@H]3CC[C@]12C [PROGESTERONE, reference compound] | 0.316
56 | C=C1C2CC[C@@]3(C)[C@H](c4ccoc4)OC(=O)C[C@]13O[C@H]1C[C@H](OC(C)=O)C(C)(C)[C@H](CC(=O)OC)[C@@]21C [3beta- ACETO[…] ACID, METHYL ESTER] | 0.553
